Values joined by “and” are separate entries in the source; they are usually repeats but may differ in a detail not shown here. Equal values may be shown once.

Assay [1] deals with recombinant PsauGOBP2. Description: Competitive fluorescence binding assay: displacement of 1-NPN from recombinant PsauGOBP2. On the set-up: species or system Peridroma saucia. Conditions: means ± SE, n = 3; for IC50: PsauGOBP2 and 1-NPN, IC50 > 30 μM considered no binding affinity, read-out: IC50 (concentration of ligand halving the initial fluorescence value of 1-NPN); for Ki: Ki = [IC50]/(1 + [1-NPN]/K1-NPN), read-out: Ki (calculated dissociation constant). As to the method: (§1) For the expression of recombinant PsauGOBP2, pET-30b containing the sequence encoding mature PsauGOBP2 was used to transform BL21 E. coli cells. Protein expression was induced by the addition of IPTG (final concentration 0.4 mM) when the OD600 value of cell culture reached about 0.8. Cells cultured for further 2–4 h at 37°C were harvested by centrifugation. PsauGOBP2 was present as inclusion bodies. 10 mL of 8 M urea and 1 mM DTT in Tris buffer (50 mM, pH 7.4) were then used to solubilise the inclusion body pellet (from 1 L of culture). The dissolved protein was dialyzed against 1 L of Tris buffer (50 mM, pH 7.4). The recombinant protein was purified on the anion exchange resins QFF, following standard protocols previously adopted for other moth OBPs ([Sun et al., 2012]; [Sun et al., 2021]).
Binding affinities of odorants to PsauGOBP2 were measured by competitive binding assays. A panel of 28 compounds (competitors) including the P. saucia female sex pheromone components Z11-16: Ac and Z9-14: Ac and 26 host plant volatiles were used in the assay. The CAS number, source, and purity of these compounds were listed in Supplementary Table S3. A solution of PsauGOBP2 and 1-NPN, both at the concentration of […], was titrated with 1 mM of each competitor (dissolved in methanol) at a final concentration of 10 µM (sex pheromones) or 20 µM (host plant volatiles). The dissociation constants (Ki) of competitors to PsauGOBP2 were calculated using the equation: Ki = [IC50]/(1 + [1-NPN]/K1-NPN), where [IC50] is the concentration of the competitor halving (50%) the initial fluorescence value (100%), [1-NPN] is the free concentration of 1-NPN, and K1-NPN is the dissociation constant of the protein-1-NPN complex.

Another assay addresses PsauGOBP1. On the set-up: method as in Sun et al., 2021. To be noted: binding to PsauGOBP1; ref Sun et al., 2021; cited from earlier work.
Assay [2] concerns the target recombinant PsauGOBP2. Description: Fluorescence binding assay: titration of recombinant PsauGOBP2 with the fluorescent probe 1-NPN. On the set-up: species or system Peridroma saucia. To be noted: 2 mM protein in 50 mM Tris-HCl pH 7.4, titrated with 1-NPN to 20 µM; excitation 337 nm; means +SE, n = 3; single binding site; read-out: K1-NPN (dissociation constant of 1-NPN to PsauGOBP2). As for the experimental part: as §1
The fluorescence binding assays were conducted on a Hitachi F-2710 with a 1 cm light path quartz cuvette. To measure the affinity of the fluorescent probe 1-NPN (N-phenyl-1-naphthylamine) to PsauGOBP2, a […] solution of the protein in 50 mM Tris-HCl, pH 7.4, was titrated with aliquots of 1 mM 1-NPN in methanol to a final concentration of 20 µM. The probe was excited at 337 nm, and emission spectra were recorded between 380 and 460 nm. The dissociation constant of 1-NPN (K1-NPN) to PsauGOBP2 was obtained by processing the data with GraphPad Prism 6.0.

Setting [3] is: remaining 1-NPN fluorescence at Max Conc 20 (20 µM, host plant volatiles).
Setting [4] is: remaining 1-NPN fluorescence at Max Conc 10 (10 µM, sex pheromones).

`CC(C)=CCCC(C)=CC=O` (mixture of isomers) [Citral]: the IC50 on recombinant PsauGOBP2 [1] is more than 30 µM. The “Fluorescence at max (%)” value in the assay on recombinant PsauGOBP2 [1] (setting [3]) worked out at 76 ± 5%. Moreover, the Ki on PsauGOBP1 was 5.6 µM.

Regarding `c1ccc(Nc2cccc3ccccc23)cc1` [1-NPN, N-phenyl-1-naphthylamine], the Kd at recombinant PsauGOBP2 [2] came out at 3.2 ± 0.19 µM.

`CCC/C=C/CO` [(E)-2-Hexen-1-ol, (E)-2-hexen-1-ol]: at recombinant PsauGOBP2 [1], the IC50 was more than 30 µM. The “Fluorescence at max (%)” value with recombinant PsauGOBP2 [1] (setting [3]) was determined as 69 ± 7%.

Take `CCC/C=C/C=O` [(E)-2-Hexenal, (E)-2-hexenal]: the IC50 at recombinant PsauGOBP2 [1] was more than 30 µM. In the assay with recombinant PsauGOBP2 [1] (setting [3]), the “Fluorescence at max (%)” value worked out at 77 ± 3%.

As for `CCC/C=C/COC(C)=O` [(E)-2-Hexenyl acetate, (E)-2-hexenyl acetate], the IC50 at recombinant PsauGOBP2 [1] is more than 30 µM. For the same molecule, the “Fluorescence at max (%)” value with recombinant PsauGOBP2 [1] (setting [3]) is given as 69 ± 3%.

Regarding `C=C1CC/C=C(\C)CC[C@@H]2[C@@H]1CC2(C)C` [(E)-Caryophyllene, (E)-caryophyllene], the IC50 on recombinant PsauGOBP2 [1] is more than 30 µM. Besides, in the assay with recombinant PsauGOBP2 [1] (setting [3]), the “Fluorescence at max (%)” value was found to be 90 ± 3%.

For `C=CC(=C)CC/C=C(\C)CCC=C(C)C` [(E)-β-farnesene], on recombinant PsauGOBP2 [1], the IC50 was more than 30 µM. The “Fluorescence at max (%)” value in the assay with recombinant PsauGOBP2 [1] (setting [3]) is reported as 75 ± 7%.

As for `CC/C=C\CCO` [(Z)-3-Hexen-1-ol, (Z)-3-hexen-1-ol], the IC50 at recombinant PsauGOBP2 [1] was more than 30 µM. Besides, the “Fluorescence at max (%)” value with recombinant PsauGOBP2 [1] (setting [3]) amounted to 72 ± 3%. The Ki on PsauGOBP1 is 8.5 µM.

`CC/C=C\CCOC(C)=O` [(Z)-3-Hexenyl acetate, (Z)-3-hexenyl acetate]: the IC50 on recombinant PsauGOBP2 [1] was more than 30 µM. Besides, in the assay with recombinant PsauGOBP2 [1] (setting [3]), the “Fluorescence at max (%)” value is 86 ± 2%. At PsauGOBP1, the Ki is 4 µM.

Regarding `CC/C=C\CC1=C(C)CCC1=O` [(Z)-jasmone], the IC50 at recombinant PsauGOBP2 [1] is more than 30 µM. Besides, the “Fluorescence at max (%)” value in the assay with recombinant PsauGOBP2 [1] (setting [3]) is 75 ± 3%.

Turning to `O=Cc1ccccc1` [Benzaldehyde], the IC50 on recombinant PsauGOBP2 [1] was more than 30 µM. The “Fluorescence at max (%)” value in the assay with recombinant PsauGOBP2 [1] (setting [3]) was determined as 74 ± 3%. Also, the Ki at PsauGOBP1 was 9.4 µM.

On to `C=C(C)[C@H]1CC=C(C)CC1` [D-Limonene], for which the IC50 at recombinant PsauGOBP2 [1] was more than 30 µM. The “Fluorescence at max (%)” value in the assay with recombinant PsauGOBP2 [1] (setting [3]) came out at 85 ± 5%.

With `CCCCCCCCCC=O` [Decanal], the IC50 on recombinant PsauGOBP2 [1] was more than 30 µM. Also, the “Fluorescence at max (%)” value in the assay with recombinant PsauGOBP2 [1] (setting [3]) worked out at 73 ± 7%.

For the molecule `CCCCCCCCCCCCO` [Dodecanol], on recombinant PsauGOBP2 [1], the Ki was 13 ± 0.4 µM and the IC50 is 19.5 ± 0.6 µM. For the same molecule, in the assay on recombinant PsauGOBP2 [1] (setting [3]), the “Fluorescence at max (%)” value is recorded as 49 ± 3%.

In the case of `CC(C)=CCC/C(C)=C/CC/C(C)=C/CO` [Farnesol], at recombinant PsauGOBP2 [1], the IC50 was more than 30 µM. For the same molecule, in the assay with recombinant PsauGOBP2 [1] (setting [3]), the “Fluorescence at max (%)” value is 100 ± 3%. The Ki at PsauGOBP1 is 6.4 µM.

As to `CCCCCCCO` [Heptanol], the IC50 on recombinant PsauGOBP2 [1] was more than 30 µM. The “Fluorescence at max (%)” value with recombinant PsauGOBP2 [1] (setting [3]) came to 80 ± 2%.

For the molecule `c1ccc2[nH]ccc2c1` [Indole], the IC50 on recombinant PsauGOBP2 [1] was more than 30 µM. In the assay with recombinant PsauGOBP2 [1] (setting [3]), the “Fluorescence at max (%)” value is recorded as 100 ± 8%.

Consider `CC/C=C\C[C@H]1C(=O)CC[C@@H]1CC(=O)O` [Jasmonic acid], for which the IC50 at recombinant PsauGOBP2 [1] is more than 30 µM. The “Fluorescence at max (%)” value in the assay on recombinant PsauGOBP2 [1] (setting [3]) was determined as 73 ± 5%.

For `C=CC(C)(O)CCC=C(C)C` (centres unmarked) [Linalool], at recombinant PsauGOBP2 [1], the IC50 was more than 30 µM. Besides, the “Fluorescence at max (%)” value in the assay with recombinant PsauGOBP2 [1] (setting [3]) was found to be 74 ± 6%.

With `CC/C=C\CC1C(=O)CCC1CC(=O)OC` (centres unmarked) [Methyl jasmonate], the IC50 on recombinant PsauGOBP2 [1] was more than 30 µM. Further, the “Fluorescence at max (%)” value with recombinant PsauGOBP2 [1] (setting [3]) is recorded as 70 ± 7%.

Regarding `COC(=O)c1ccccc1O` [Methyl salicylate], the IC50 at recombinant PsauGOBP2 [1] was more than 30 µM. In addition, in the assay on recombinant PsauGOBP2 [1] (setting [3]), the “Fluorescence at max (%)” value is recorded as 79 ± 2%.

In the case of `CCCCCCCCC=O` [Nonanal], the IC50 on recombinant PsauGOBP2 [1] is more than 30 µM. For the same molecule, the “Fluorescence at max (%)” value with recombinant PsauGOBP2 [1] (setting [3]) was 85 ± 2%. Also, the Ki on PsauGOBP1 is 6.8 µM.

Regarding `CCCCCCCC=O` [Octanal], on recombinant PsauGOBP2 [1], the IC50 was more than 30 µM. In addition, the “Fluorescence at max (%)” value with recombinant PsauGOBP2 [1] (setting [3]) came out at 75 ± 2%.

Take `CC(=O)OCCc1ccccc1` [Phenylethyl acetate]: at recombinant PsauGOBP2 [1], the inhibition constant Ki is 6.3 ± 0.3 µM and the IC50 is 10.5 ± 0.5 µM. Also, in the assay on recombinant PsauGOBP2 [1] (setting [3]), the “Fluorescence at max (%)” value came to 39 ± 3%.

On to `CCCC/C=C\CCCCCCCCOC(C)=O` [Z9-14: Ac], for which, on recombinant PsauGOBP2 [1], the Ki is 4.9 µM and < 5 µM; the IC50 is 7.5 ± 0.9 µM. The “Fluorescence at max (%)” value with recombinant PsauGOBP2 [1] (setting [4]) is on record as 45 ± 3%.

Consider `CCCC/C=C\CCCCCCCCCCOC(C)=O` [Z11-16: Ac], for which, on recombinant PsauGOBP2 [1], the Ki is 4.2 µM and < 5 µM; the IC50 was 6.5 ± 1.2 µM. The “Fluorescence at max (%)” value in the assay with recombinant PsauGOBP2 [1] (setting [4]) was 41 ± 4%.

For the molecule `C=CC(=C)CCC=C(C)C` [β-Myrcene, β-myrcene], on recombinant PsauGOBP2 [1], the Ki is 8 ± 0.3 µM and the IC50 was determined as 12 ± 0.5 µM. The “Fluorescence at max (%)” value with recombinant PsauGOBP2 [1] (setting [3]) is 45 ± 1.5%.

Take `C=C/C(C)=C/CC=C(C)C` [β-Ocimene, β-ocimene]: the IC50 on recombinant PsauGOBP2 [1] is more than 30 µM. Also, the “Fluorescence at max (%)” value in the assay with recombinant PsauGOBP2 [1] (setting [3]) is 90 ± 4%.

On to `C=C1CCC2CC1C2(C)C` (stereo not drawn) [β-Pinene, β-pinene], for which the IC50 on recombinant PsauGOBP2 [1] is more than 30 µM. Further, the “Fluorescence at max (%)” value with recombinant PsauGOBP2 [1] (setting [3]) is 79 ± 9%.

(Values after PMC10450149, “Antennal transcriptome analysis of odorant-binding proteins and characterization of GOBP2 in the variegated cutworm Peridroma saucia” (Frontiers in Physiology, 2023).)
